Where a name gives a salt, the structure may show the parent alone.
Key:
human 5-HT2C receptor = target: T1, human 5-HT2C receptor (Homo sapiens, UniProt P28335); experiment: Test B: binding to human 5-HT2C serotonin receptor, [3H]-mesulergine displacement; conditions: membranes from CHO-K1 cells expressing human 5-HT2C; 1 nM [3H]-mesulergine; 1 hour at 25° C.; read-out: (h)5-HT2c (pKi) (converted)
T1 construct: expressed in transfected cells
T1 sequence (P28335 33-458): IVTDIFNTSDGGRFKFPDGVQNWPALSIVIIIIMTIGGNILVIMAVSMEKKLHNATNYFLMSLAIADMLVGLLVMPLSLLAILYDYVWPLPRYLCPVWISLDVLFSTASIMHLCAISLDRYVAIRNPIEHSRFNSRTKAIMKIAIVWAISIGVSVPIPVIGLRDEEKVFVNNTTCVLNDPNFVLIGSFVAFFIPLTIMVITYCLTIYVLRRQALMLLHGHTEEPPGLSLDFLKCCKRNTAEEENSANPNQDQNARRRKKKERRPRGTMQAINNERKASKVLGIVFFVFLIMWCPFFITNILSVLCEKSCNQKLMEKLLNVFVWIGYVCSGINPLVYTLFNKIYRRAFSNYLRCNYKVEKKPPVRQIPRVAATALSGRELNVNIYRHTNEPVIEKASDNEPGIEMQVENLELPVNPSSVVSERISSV
Experimental: 69: 1449-1458. In particular, binding to the human serotonin 5-HT2C receptor was performed using, as starting material, a preparation of membranes from stable recombinant CHO-K1 cell line expressing the human 5-HT2C receptor. […] The non-specific binding was measured in the presence of 1 μM mianserin. The assay was conducted in Tris-HCl 50 mM buffer (pH 7.4 at 37° C.), 0.1% Ascorbic Acid, 10 μM Pargyline, with incubation for 1 hour at 25° C. The test compounds were dissolved in DMSO, then diluted in buffer (final DMSO concentration 0.01%) and plated on 96-well plates The compounds were tested in duplicate in an 8-points concentration response curve (in a Log scale ranging from 10^−12 to 10^−5 M). SB 242084 was used as reference compound. […] Then the filters were washed with buffer solution and oven-dried for 30 minutes at 45° C. The scintillation liquid was added to each well, and at least 16 hours later the radioactivity was measured for 1 minute using a TopCount (Packard). The IC50 values for each compound were calculated using non-linear regression analysis (GraphPad PRISM software) and the inhibition constants Ki were determined using the equation described by Cheng Y. and Prussof W. H. […] Pharmacol. 22: 3099-3108.

serotoninergic system = experiment: Test C: 5-HTP-induced head twitch test in mice; type: in vivo, mouse; conditions: male CD-1 mice; 5 mg/kg intraperitoneally; 5-HTP 300 mg/kg i.p. 30 min later; counted 24 to 26 minutes after 5-HTP
Experimental: The interactions of the compounds of formula (I) according to the present invention with the serotoninergic system was tested following the “head twitch” model in the mouse, according to the standard methodology described by Sztanke K., Fidecka S., Kedzierska E., Karczmarzyk Z., Pihlaja K., Matosiuk D. (2005) in “Antionociceptive activity of new imidazole carbonyl derivatives. Part 4. Synthesis and pharmacological activity of 8-aryl-3,4-dioxo-2H,8H-6,7-dihydrimidazo[2,1c][1,2,4]triazine.” Eur. J. Med. Chem. 40: 127-134, and in Corne S. J., Pickering R. W., Warner B. T. (1963) “A method for assessing the effects of drugs on the central actions of 5-hydroxytryptamine.” Br. J. Pharmacol. Chemother. 20: 106-120.
The “head twitches” are a characteristic shaking of the head induced in the animals by the increase in central levels of serotonin.
Male CD-1 mice weighing 25-30 g were used for the “head twitch” test. Molecules were suspended in a 0.5% methylcellulose aqueous solution (MTC) and the animals were treated intraperitoneally with the test compounds at the dose of 5 mg/kg (10 ml/kg body weight). The control animals received the vehicle alone (MTC) by the same route. Head twitches, considered as a specific behavioural model for the activation of serotoninergic neurons, were induced by an intraperitoneal administration of 5-hydroxytryptophan (5-HTP), a precursor of serotonin (5-HT), dissolved in a 0.5% MTC solution and given at 300 mg/kg 30 min following drug administration.
The number of head twitches, which constitutes the parameter for assessment of the serotoninergic response, was measured in the interval from 24 to 26 minutes after administration of 5-HTP.

human 5-HT2A receptor = target: T2, human 5-HT2A receptor (Homo sapiens, UniProt P28223); experiment: Test A: binding to human recombinant 5-HT2A serotonin receptor, [3H]-ketanserin displacement; conditions: membranes from CHO-K1 cells expressing human 5-HT2A; 0.5 nM [3H]-ketanserin; 1 hour at 25° C.; read-out: 5-HT2A (pKi) (converted)
T2 construct: expressed in transfected cells
Experimental: In particular, binding to the human 5-HT2A serotonin receptor was performed using, as starting material, a preparation of membranes from stable recombinant CHO-K1 cell line expressing the human 5-HT2A receptor.
The non-specific binding was measured in the presence of 1 μM mianserin. The assay was conducted in Tris-HCl 50 mM buffer (pH 7.4 at 37° C.), with incubation for 1 hour at 25° C. The test compounds were dissolved in DMSO, then diluted in buffer (final DMSO concentration 0.01%) and plated on 96-well plates. The compounds were tested in duplicate in an 8-points concentration response curve (in a Log scale ranging from 10^−12 to 10^−5 M).
After incubation, the membranes were filtered on glass-fibre filters (GF/B) (Unifilter, Packard) treated with 0.5% polyethyleneimine. Then the filters were washed with buffer solution and oven-dried for 30 minutes at 45° C. The scintillation liquid was added to each well, and at least 16 hours later the radioactivity was measured for 1 minute using a TopCount (Packard).
The IC50 values for each compound were calculated using non-linear regression analysis (GraphPad PRISM software) and the inhibition constants Ki were determined using the equation described by Cheng Y. and Prussof W. H. (1973) “Relationship between the inhibition constant (Ki) and the concentration of inhibitor which causes 50 percent inhibition (I50) of an enzyme reaction.” Biochem. Pharmacol. 22: 3099-3108.

T2 sequence (P28223 whole entry): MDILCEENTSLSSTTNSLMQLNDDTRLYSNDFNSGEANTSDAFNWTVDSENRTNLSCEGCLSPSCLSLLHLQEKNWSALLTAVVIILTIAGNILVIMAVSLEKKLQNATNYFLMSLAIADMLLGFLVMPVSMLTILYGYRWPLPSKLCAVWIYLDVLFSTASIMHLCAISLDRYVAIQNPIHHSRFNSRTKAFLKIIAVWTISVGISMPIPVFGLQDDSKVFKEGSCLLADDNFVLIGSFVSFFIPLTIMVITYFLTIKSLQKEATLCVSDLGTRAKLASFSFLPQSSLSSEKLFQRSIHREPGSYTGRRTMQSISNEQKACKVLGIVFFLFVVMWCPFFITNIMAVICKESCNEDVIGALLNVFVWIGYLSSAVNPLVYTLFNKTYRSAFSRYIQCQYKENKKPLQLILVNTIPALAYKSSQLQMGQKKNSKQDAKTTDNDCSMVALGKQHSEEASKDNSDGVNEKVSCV

Row | Structure (SMILES) | Ki (human 5-HT2C receptor) [nM] | % INHIBITION (number of head twitches vs vehicle treated group) (serotoninergic system) [%] | Ki (human 5-HT2A receptor) [nM]
1 | Cl.O=C1c2c3ccccc3nn2CCN1CC1CCN(CCc2ccc(F)cc2)CC1 [Compound 1, 2-({1-[2-(4-fluorophenyl)ethyl]piperidin-4-yl}methyl)-3,4-dihydropyrazino[1,2-b]indazol-1(2H)-one hydrochloride] | 1700 | 50 | 19.5
2 | O=C1c2c3ccccc3nn2CCN1CC1CCCN(CCc2ccc(F)cc2)C1 (stereo not shown) [Compound 2, 2-({1-[2-(4-fluorophenyl)ethyl]piperidin-3-yl}methyl)-3,4-dihydropyrazino[1,2-b]indazol-1(2H)-one] | – | – | 1150
3 | O=C1c2c3ccccc3nn2CCN1CC1CCCN(CCc2ccccc2F)C1 (stereo not shown) [Compound 5, 2-({1-[2-(2-fluorophenyl)ethyl]piperidin-3-yl}methyl)-3,4-dihydropyrazino[1,2-b]indazol-1(2H)-one hydrochloride] | – | – | 692
4 | O=C1c2c3ccccc3nn2CCN1CC1CCN(CCc2ccccc2F)CC1 [Compound 8, 2-({1-[2-(2-fluorophenyl)ethyl]piperidin-4-yl}methyl)-3,4-dihydropyrazino[1,2-b]indazol-1(2H)-one] | – | 70 | 1.82
5 | O=C1c2c3ccccc3nn2CCCN1CC1CCCN(CCc2ccc(F)cc2)C1 (stereo not shown) [Compound 10, 2-({1-[2-(4-fluorophenyl)ethyl]piperidin-3-yl}methyl)-2,3,4,5-tetrahydro-1H-[1,4]diazepino[1,2-b]indazol-1-one dihydrochloride] | – | – | 275
6 | O=C1c2c3ccccc3nn2CCCN1CC1CCCN(CCc2ccccc2F)C1 (stereo not shown) [Compound 13, 2-({1-[2-(2-fluorophenyl)ethyl]piperidin-3-yl}methyl)-2,3,4,5-tetrahydro-1H-[1,4]diazepino[1,2-b]indazol-1-one dihydrochloride] | – | – | 257
7 | Cl.O=C1c2c3ccccc3nn2CCCN1CC1CCN(CCc2ccc(F)cc2)CC1 [Compound 16, 2-({1-[2-(4-fluorophenyl)ethyl]piperidin-4-yl}methyl)-2,3,4,5-tetrahydro-1H-[1,4]diazepino[1,2-b]indazol-1-one hydrochloride] | > 10000 | 56 | 7.24
8 | O=C1c2c3c(nn2CCN1CC1CCN(CCc2ccc(F)cc2)CC1)CCCC3 [Compound 17, 2-({1-[2-(4-fluorophenyl)ethyl]piperidin-4-yl}methyl)-3,4,7,8,9,10-esahydropyrazino[1,2-b]indazol-1(2H)-one hydrochloride] | 7410 | 32 | 29.5
9 | O=C1c2c3ccccc3nn2CCN1CC1CCN(CCc2ccccc2)CC1 [Compound 20, 2-[(1-phenethylpiperidin-4-yl)methyl]-3,4-dihydropyrazino[1,2-b]indazol-1(2H)-one hydrochloride] | – | – | 16.6
10 | O=C1c2c3ccccc3nn2CCCN1CC1CCN(CCc2ccccc2)CC1 [Compound 22, 2-[(1-phenethylpiperidin-4-yl)methyl]-2,3,4,5-tetrahydro-1H-[1,4]diazepino[1,2-b]indazol-1-one] | – | – | 20.9
11 | O=C1c2c3ccccc3nn2CCN1CCCN1CCC(c2ccccc2)CC1 [Compound 28, 2-[3-(4-phenylpiperidin-1-yl)propyl]-3,4-dihydropyrazino[1,2-b]indazol-1(2H)-one hydrochloride] | > 10000 | – | 74.1
12 | O=C1c2c3ccccc3nn2CCCN1CCCN1CCC(c2ccccc2)CC1 [Compound 31, 2-[3-(4-phenylpiperidin-1-yl)propyl]-2,3,4,5-tetrahydro-1H-[1,4]diazepino[1,2-b]indazol-1-one hydrochloride] | > 10000 | – | 45.7
13 | Cc1cc2c(cc1Cl)N(C(=O)Nc1ccc(Oc3cccnc3C)nc1)CC2 [SB 242084, reference compound] | 0.468 | – | –
